Among the data in US8188098B2, “GPR119 receptor agonists” (Hoffmann-La Roche Inc., priority 2008, dated 2012) are EC50 values, retold here.

A word on the EC50: it is the concentration at which the effect is half-maximal.

For this experiment, the target named is T1, GPR119 receptor (Mesocricetus auratus, UniProt A0A1U8CD06).
T1 construct: which endogenously express the GPR119 receptor; host or cells: HIT-T15 hamster pancreatic islet cells
T1 sequence (A0A1U8CD06 1-334): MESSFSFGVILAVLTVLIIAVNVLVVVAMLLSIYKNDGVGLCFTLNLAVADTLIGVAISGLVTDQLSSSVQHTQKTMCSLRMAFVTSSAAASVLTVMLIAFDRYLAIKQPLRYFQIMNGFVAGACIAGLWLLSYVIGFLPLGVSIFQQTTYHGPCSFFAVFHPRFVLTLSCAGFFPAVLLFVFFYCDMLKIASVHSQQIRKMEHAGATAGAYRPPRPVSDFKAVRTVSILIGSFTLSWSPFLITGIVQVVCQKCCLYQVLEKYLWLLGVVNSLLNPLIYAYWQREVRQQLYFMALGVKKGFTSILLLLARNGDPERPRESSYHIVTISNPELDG
The experiment can be described thus: cAMP assay in HIT-T15 hamster pancreatic islet cells (functional agonist activity). The format is cell-based. To be noted: HIT-T15 cells endogenously expressing GPR119; 30 min at 25° C.; intracellular cAMP. The procedure:
The functional agonist activities of compounds of the invention were characterized using a cAMP assay in HIT-T15 hamster pancreatic islet cells (American Type Culture Collection, Manassas, Va., USA) which endogenously express the GPR119 receptor. The cells were cultured in Kaighn's modification of Ham's F12 medium (Invitrogen Corporation, Carlsbad, Calif., USA) containing 10% horse serum, 2.5% FBS, and 1% Pen/Strep and grown in 225 cm^2 tissue culture flasks until they reached 75-85% confluence.
The cells were harvested 24 h prior to assay with 5 ml Versene®, washed with Kaighn/F12 medium and then plated into white 384-well plates (9000 cells/well) containing Kaighn/F12 medium. Prior to assay, the culture medium was replaced with a Kaighn/F12 medium without phenol red (50 μL/well) containing 0.5 mM 3-isobutyl-1-methylxanthine, 0.5 mg/ml BSA. The cells were incubated in the dark for 30 min at 25° C. in the absence or presence of varying concentrations of agonist (1 μL, 100% DMSO). The incubation media was discarded and replaced with the assay lysis buffer (50 μL/well) provided in the Tropix cAMP-Screen® kit (Applied Biosystems, Foster City, Calif., USA) and the plates incubated for 45 min at 37° C. The intracellular levels of cAMP generated in the HIT-T 15 cells were measured using the Tropix kit. In brief, 20 μL of the lysate was transferred into pre-coated antibody plates (384-well; Tropix kit) along with 10 μL of alkaline phosphatase conjugate and 20 μL of anti-cAMP antibody and the plates were incubated for 1 h at room temperature while shaking. The plates were then washed 5 times with wash buffer (70 μL) and tapped dry. CSPD®/Sapphire-II™ RTU substrate/enhancer solution (Applied Biosystems, Foster City, Calif., USA; 30 μL) was added and the plates were incubated for 45 min at room temperature while shaking. The signal generated was measured using a Wallac Victor V Luminometer (PerkinElmer Life And Analytical Sciences, Inc., Waltham, Mass., USA; 1 sec/well). EC50 values were calculated using the XLFit program (ID Business Solutions Ltd., Guildford, Surrey, UK).
As for `CC(C)(C)OC(=O)N1CCC(n2ncc3c(Oc4ccc(-c5ccsc5)cc4)ncnc32)CC1` [Example 86, 4-[4-(4-Thiophen-3-yl-phenoxy)-pyrazolo[3,4-d]pyrimidin-1-yl]-piperidine-1-carboxylic acid tert-butyl ester], the midpoint of the response, the EC50, lay at 0.49 µM. To `CN(C)S(=O)(=O)c1ccc(Oc2ncnc3c2cnn3C2CCN(C(=O)OC(C)(C)C)CC2)cc1` [Example 57, 4-[4-(4-Dimethylsulfamoyl-phenoxy)-pyrazolo[3,4-d]pyrimidin-1-yl]-piperidine-1-carboxylic acid tert-butyl ester] belongs 0.3 µM. To `CC(C)(C)OC(=O)N1CCC(n2ncc3c(Oc4ccccc4C#N)nc(N)nc32)CC1` [Example 174, 4-[6-Amino-4-(2-cyano-phenoxy)-pyrazolo[3,4-d]pyrimidin-1-yl]-piperidine-1-carboxylic acid tert-butyl ester] belongs 3.4 µM; to `COc1ccc(Oc2ncnc3c2cnn3C2CCN(C(=O)OC(C)(C)C)CC2)c(Cl)c1` [Example 44, 4-[4-(2-Chloro-4-methoxy-phenoxy)-pyrazolo[3,4-d]pyrimidin-1-yl]-piperidine-1-carboxylic acid tert-butyl ester], 0.19 µM; to `Cc1cc(=O)oc2cc(Oc3ncnc4c3cnn4C3CCN(C(=O)OC(C)(C)C)CC3)ccc12` [Example 76, 4-[4-(4-Methyl-2-oxo-2H-chromen-7-yloxy)-pyrazolo[3,4-d]pyrimidin-1-yl]-piperidine-1-carboxylic acid tert-butyl ester], 3 µM. The result for `CC(C)(C)OC(=O)N1CCC(n2ncc3c(Oc4ccc(-n5cncn5)cc4)ncnc32)CC1` [Example 80, 4-[4-(4-[1,2,4]Triazol-1-yl-phenoxy)-pyrazolo[3,4-d]pyrimidin-1-yl]-piperidine-1-carboxylic acid tert-butyl ester] reads 0.046 µM; that for `CCOc1ccc(Oc2ncnc3c2cnn3C2CCN(C(=O)OC(C)(C)C)CC2)cc1` [Example 40, 4-[4-(4-Ethoxy-phenoxy)-pyrazolo[3,4-d]pyrimidin-1-yl]-piperidine-1-carboxylic acid tert-butyl ester], 0.2 µM.

The molecule `CC(C)(C)OC(=O)N1CCC(n2ncc3c(Nc4cc(F)c(F)cc4F)ncnc32)CC1` [Example 4, 4-[4-(2,4,5-Trifluoro-phenylamino)-pyrazolo[3,4-d]pyrimidin-1-yl]-piperidine-1-carboxylic acid tert-butyl ester] had an EC50 of 0.53 µM.

`C[S+]([O-])c1ccc(Oc2ncnc3c2cnn3C2CCN(C(=O)OC(C)(C)C)CC2)cc1` (centres unmarked) [Example 58, 4-[4-(4-Methanesulfinyl-phenoxy)-pyrazolo[3,4-d]pyrimidin-1-yl]-piperidine-1-carboxylic acid tert-butyl ester] returned an EC50 of 0.42 µM. Take `CC(C)(C)OC(=O)N1CCC(n2ncc3c(Oc4ccc(C#N)c(F)c4)ncnc32)CC1` [Example 48, 4-[4-(4-Cyano-3-fluoro-phenoxy)-pyrazolo[3,4-d]pyrimidin-1-yl]-piperidine-1-carboxylic acid tert-butyl ester]: the EC50 turned out to be 0.22 µM. This EC50 lies about 1.9-fold lower than the previous one.

`CC(C)OC(=O)N1CCC(n2ncc3c(Oc4ccccc4)ncnc32)CC1` [Example 15, 4-(4-Phenoxy-pyrazolo[3,4-d]pyrimidin-1-yl)-piperidine-1-carboxylic acid isopropyl ester] had an EC50 of 2 µM. Consider `CC(C)(C)OC(=O)N1CCC(n2ncc3c(Nc4ccc(S(C)(=O)=O)cc4)ncnc32)CC1` [Example 5, 4-[4-(4-Methanesulfonyl-phenylamino)-pyrazolo[3,4-d]pyrimidin-1-yl]-piperidine-1-carboxylic acid tert-butyl ester], for which the EC50 amounted to 1.5 µM. The result for `CC(C)(C)OC(=O)N1CCC(n2ncc3c(Oc4ccc(OC(F)(F)F)cc4)ncnc32)CC1` [Example 42, 4-[4-(4-Trifluoromethoxy-phenoxy)-pyrazolo[3,4-d]pyrimidin-1-yl]-piperidine-1-carboxylic acid tert-butyl ester] reads 1.8 µM; that for `CC(C)(C)OC(=O)N1CCC(n2ncc3c(Oc4ccccc4C#N)ncnc32)CC1` [Example 45, 4-[4-(2-Cyano-phenoxy)-pyrazolo[3,4-d]pyrimidin-1-yl]-piperidine-1-carboxylic acid tert-butyl ester], 0.061 µM. `CS(=O)(=O)c1ccc(Oc2ncnc3c2cnn3C2CCN(C(=O)C3CCCC3)CC2)cc1` [Example 141, Cyclopentyl-{4-[4-(4-methanesulfonyl-phenoxy)-pyrazolo[3,4-d]pyrimidin-1-yl]-piperidin-1-yl}-methanone]: it took 0.42 µM to reach a half-maximal effect (EC50). Compared with the last molecule, the EC50 is about 6.9-fold higher. Molecule `Cc1nc(S(C)(=O)=O)ccc1Oc1ncnc2c1cnn2C1CCN(C(=O)OC(C)(C)C)CC1` [Example 98, 4-[4-(6-Methanesulfonyl-2-methyl-pyridin-3-yloxy)-pyrazolo[3,4-d]pyrimidin-1-yl]-piperidine-1-carboxylic acid tert-butyl ester] had an EC50 of 0.096 µM. The result for `CS(=O)(=O)c1ccc(Oc2ncnc3c2cnn3C2CCN(C(=O)c3nc4ccccc4s3)CC2)cc1` [Example 156, Benzothiazol-2-yl-{4-[4-(4-methanesulfonyl-phenoxy)-pyrazolo[3,4-d]pyrimidin-1-yl]-piperidin-1-yl}-methanone] reads 0.16 µM; that for `CC(C)OC(=O)N1CCC(n2ncc3c(Oc4ccc(S(C)(=O)=O)c(F)c4)ncnc32)CC1` [Example 24, 4-[4-(3-Fluoro-4-methanesulfonyl-phenoxy)-pyrazolo[3,4-d]pyrimidin-1-yl]-piperidine-1-carboxylic acid isopropyl ester], 0.098 µM; that for `CC(C)(C)OC(=O)N1CCC(n2ncc3c(Oc4ccc(S(N)(=O)=O)cc4)ncnc32)CC1` [Example 56, 4-[4-(4-Sulfamoyl-phenoxy)-pyrazolo[3,4-d]pyrimidin-1-yl]-piperidine-1-carboxylic acid tert-butyl ester], 0.28 µM.

Molecule `CC(C)(C)CC(=O)N1CCC(n2ncc3c(Oc4ccc(S(C)(=O)=O)cc4)ncnc32)CC1` [Example 144, 1-{4-[4-(4-Methanesulfonyl-phenoxy)-pyrazolo[3,4-d]pyrimidin-1-yl]-piperidin-1-yl}-3,3-dimethyl-butan-1-one] gave an EC50 of 0.27 µM. To `CS(=O)(=O)c1ccc(Oc2ncnc3c2cnn3C2CCN(c3ccc(Cl)nn3)CC2)cc1` [Example 130, 1-[1-(6-Chloro-pyridazin-3-yl)-piperidin-4-yl]-4-(4-methanesulfonyl-phenoxy)-1H-pyrazolo[3,4-d]pyrimidine] belongs 0.71 µM; to `Cc1nc(Cl)ccc1Oc1ncnc2c1cnn2C1CCN(C(=O)OC(C)(C)C)CC1` [Example 97, 4-[4-(6-Chloro-2-methyl-pyridin-3-yloxy)-pyrazolo[3,4-d]pyrimidin-1-yl]-piperidine-1-carboxylic acid tert-butyl ester], 0.53 µM; to `CC(C)(C)OC(=O)N1CCC(n2ncc3c(Oc4ccc5[nH]ccc5c4)ncnc32)CC1` [Example 74, 4-[4-(1H-Indol-5-yloxy)-pyrazolo[3,4-d]pyrimidin-1-yl]-piperidine-1-carboxylic acid tert-butyl ester], 1.9 µM. `CC(C)(C)OC(=O)N1CCC(n2ncc3c(Oc4ccc(S(C)(=O)=O)cc4)nc(Cl)nc32)CC1` [Example 172, 4-[6-Chloro-4-(4-methanesulfonyl-phenoxy)-pyrazolo[3,4-d]pyrimidin-1-yl]-piperidine-1-carboxylic acid tert-butyl ester] registered an EC50 of 0.024 µM.

`CCOc1ccc(Oc2ncnc3c2cnn3C2CCN(C(=O)OC3CCCC3)CC2)c(F)c1` [Example 117, 4-[4-(4-Ethoxy-2-fluoro-phenoxy)-pyrazolo[3,4-d]pyrimidin-1-yl]-piperidine-1-carboxylic acid cyclopentyl ester] yielded an EC50 of 0.17 µM. For `CS(=O)(=O)c1ccc(Oc2ncnc3c2cnn3C2CCN(C(=O)OCC(F)(F)F)CC2)cc1` [Example 113, 4-[4-(4-Methanesulfonyl-phenoxy)-pyrazolo[3,4-d]pyrimidin-1-yl]-piperidine-1-carboxylic acid 2,2,2-trifluoro-ethyl ester], the EC50 turned out to be 0.16 µM.
